Data from PMC4467398, “Preclinical antitumor activity of ST7612AA1: a new oral thiol-based histone deacetylase (HDAC) inhibitor” (Oncotarget, 2014).

Test system: DOHH2 and TMD8 DLBCL cells
Experiment: Gene expression profiling (HumanHT-12 v4 BeadChip, limma), ST7612AA1 300 nM 8 hrs vs DMSO
Type: cell-based, human
Settings: 300 nM 8 hrs vs DMSO

CC(=O)SCCCCC[C@H](NC(=O)[C@H]1CCC(=O)N1)C(=O)Nc1ccccc1 [ST7612AA1]
log ratio ATP6V0C (probe ILMN_1773849): 8.22E-01
log ratio ATP6V1G2 (probe ILMN_1654541): 8.47E-01
log ratio ATP6V1H (ILMN_2403730): 6.35E-01
log ratio ATP7B (probe ILMN_1722056): 8.88E-01
log ratio AVEN (ILMN_1710216): -1.49E+00
log ratio AVPI1 (probe ILMN_1671731): 8.94E-01
log ratio AZI1 (probe ILMN_1746206): 7.59E-01
log ratio BAG2 (ILMN_3244893): -9.02E-01
log ratio BCCIP (ILMN_1771966): -9.03E-01
log ratio BCLAF1 (ILMN_1775192): -8.85E-01
log ratio BCLAF1 (ILMN_2357272): -8.42E-01
log ratio BEND3 (ILMN_2375032): -9.71E-01
log ratio BHLHB2 (ILMN_1768534): -5.96E-01
log ratio BID (ILMN_1763386): -1.18E+00
log ratio BID (ILMN_2372413): -8.80E-01
log ratio BIK (probe ILMN_1770505): 7.57E-01
log ratio BLK (ILMN_1668277): -8.77E-01
log ratio BLVRB (probe ILMN_1797793): 8.74E-01
log ratio BMF (ILMN_1695354): 6.49E-01
log ratio BNIP3L (probe ILMN_1718961): 8.34E-01
log ratio BPHL (probe ILMN_1657746): 8.91E-01
log ratio BRIX1 (ILMN_1679800): -1.03E+00
log ratio BRIX1 (ILMN_2155172): -1.19E+00
log ratio BRPF3 (ILMN_1658800): -7.82E-01
log ratio C3orf34 (probe ILMN_1665217): 6.96E-01
log ratio C4orf32 (probe ILMN_1700257): 8.83E-01
log ratio C7orf47 (ILMN_1741475): 6.62E-01
log ratio C7orf55 (ILMN_3238680): -1.06E+00
log ratio C8orf13 (ILMN_1687213): 6.60E-01
log ratio C8orf33 (ILMN_2098325): -8.34E-01
log ratio C9orf45 (ILMN_1719998): 6.75E-01
log ratio C10orf32 (ILMN_2151056): -8.22E-01
log ratio C12orf24 (ILMN_2180371): -1.09E+00
log ratio C12orf52 (probe ILMN_1667857): 6.98E-01
log ratio C13orf15 (probe ILMN_1658494): 7.74E-01
log ratio C13orf25 (ILMN_1660754): -8.20E-01
log ratio C14orf4 (ILMN_1804396): 6.53E-01
log ratio C14orf173 (probe ILMN_2393450): 7.70E-01
log ratio C14orf179 (probe ILMN_1756877): 7.81E-01
log ratio C16orf57 (ILMN_1765880): 6.49E-01
log ratio C17orf58 (ILMN_1712985): 6.08E-01
log ratio C17orf58 (ILMN_2398926): 6.52E-01
log ratio C18orf45 (ILMN_1690442): 6.69E-01
log ratio C18orf55 (ILMN_1748916): -8.33E-01
log ratio C19orf2 (ILMN_2406892): -6.10E-01
log ratio C20orf108 (ILMN_1708016): 6.16E-01
log ratio C20orf177 (ILMN_1718712): -9.03E-01
log ratio CA2 (probe ILMN_2199439): 7.93E-01
log ratio CABLES1 (ILMN_1653001): -5.93E-01
log ratio CALM1 (ILMN_1778242): 6.20E-01
log ratio CAMLG (probe ILMN_1714599): 7.30E-01
log ratio CARHSP1 (ILMN_1809477): 5.98E-01
log ratio CASC1 (ILMN_1708983): 6.58E-01
log ratio CASC4 (probe ILMN_2325574): 6.85E-01
log ratio CBX7 (probe ILMN_1657361): 7.49E-01
log ratio CCDC6 (ILMN_1745904): 6.24E-01
log ratio CCDC16 (ILMN_2154603): -8.59E-01
log ratio CCDC24 (probe ILMN_1718771): 6.89E-01
log ratio CCDC43 (ILMN_1743783): -5.96E-01
log ratio CCDC58 (ILMN_1686920): -1.25E+00
log ratio CCDC59 (ILMN_1662318): -8.48E-01
log ratio CCDC86 (ILMN_1792681): -9.35E-01
log ratio CCDC92 (probe ILMN_1731107): 8.05E-01
log ratio CCDC128 (ILMN_1667356): 6.21E-01
log ratio CCNYL1 (ILMN_1810069): 6.58E-01
log ratio CCNYL1 (ILMN_2166524): 6.44E-01
log ratio CCR7 (ILMN_1715131): 6.79E-01
log ratio CD58 (ILMN_1785268): -9.16E-01
log ratio CD58 (ILMN_2147517): -9.82E-01
log ratio CD74 (ILMN_1736567): 6.75E-01
log ratio CD74 (probe ILMN_1761464): 8.47E-01
log ratio CD74 (probe ILMN_2379644): 7.27E-01
log ratio CDC2L6 (probe ILMN_1676891): 6.96E-01
log ratio CDC25A (ILMN_1711005): -8.24E-01
log ratio CDC42EP5 (probe ILMN_1774982): 8.75E-01
log ratio CDK2AP2 (probe ILMN_1690653): 8.01E-01
log ratio CDK4 (ILMN_1689001): -8.13E-01
log ratio CECR1 (probe ILMN_1751851): 8.43E-01
log ratio CEP70 (ILMN_1741350): 6.16E-01
log ratio CERK (ILMN_1767475): 6.70E-01
log ratio CHCHD4 (ILMN_1813938): -1.36E+00
log ratio CHD7 (ILMN_1677376): 6.71E-01
log ratio CHRAC1 (ILMN_1722390): -6.19E-01
log ratio CHSY1 (ILMN_1791576): 6.80E-01
log ratio CLCC1 (probe ILMN_1671933): 8.48E-01
log ratio CLECL1 (ILMN_1782729): -1.24E+00
log ratio CLIC4 (probe ILMN_2063586): 7.49E-01
log ratio CLIP2 (ILMN_2352190): 6.09E-01
log ratio CMIP (ILMN_1738075): 6.47E-01
log ratio CMTM8 (probe ILMN_1710124): 7.00E-01
log ratio CNFN (ILMN_1803838): 6.20E-01
log ratio CNIH2 (ILMN_1698733): 6.32E-01
log ratio COCH (ILMN_1711514): -6.14E-01
log ratio COIL (ILMN_1688034): -9.94E-01
log ratio COTL1 (probe ILMN_1788283): 6.87E-01
log ratio CPOX (ILMN_3240389): 6.04E-01
log ratio CRIP1 (probe ILMN_1656920): 8.56E-01
log ratio CRYM (probe ILMN_1779241): 8.32E-01
log ratio CSRP1 (probe ILMN_1811921): 7.01E-01
log ratio CSTB (probe ILMN_1761797): 8.06E-01
log ratio CTPS (ILMN_1783285): -1.21E+00
log ratio CTSB (probe ILMN_2359742): 8.56E-01
log ratio CUEDC1 (ILMN_1676665): 5.93E-01
log ratio CUL1 (ILMN_1749629): -1.05E+00
log ratio CXADR (probe ILMN_1796925): 8.18E-01
log ratio CXCL16 (ILMN_1728478): 6.11E-01
log ratio CXorf26 (ILMN_1768176): -1.34E+00
log ratio CXorf57 (probe ILMN_1703279): 8.25E-01
log ratio CYB5R1 (probe ILMN_1729237): 7.59E-01
log ratio CYB5R3 (probe ILMN_1740441): 7.06E-01
log ratio CYP2R1 (probe ILMN_2119774): 7.88E-01
log ratio DAD1 (ILMN_1731619): 6.40E-01
log ratio DCTD (ILMN_1802456): -1.08E+00
log ratio DCTN6 (ILMN_1744059): -8.19E-01
log ratio DCXR (ILMN_1681437): 6.03E-01
log ratio DDN (ILMN_1673450): -6.03E-01
log ratio DDX21 (ILMN_1735461): -9.88E-01
log ratio DEF8 (probe ILMN_1767509): 8.37E-01
log ratio DGCR6L (probe ILMN_3245688): 7.47E-01
log ratio DGKQ (ILMN_1793017): 6.08E-01
log ratio DHRS2 (ILMN_1725726): 6.46E-01
log ratio DIS3L (ILMN_1795822): -1.05E+00
log ratio DKC1 (ILMN_1671257): -1.02E+00
log ratio DNLZ (ILMN_2112049): -1.09E+00
log ratio DNMT3B (probe ILMN_1794692): 8.14E-01
log ratio DOK4 (ILMN_1774261): 6.37E-01
log ratio DPF1 (ILMN_1769961): 6.38E-01
log ratio DPH2 (ILMN_2375418): -1.21E+00
log ratio DSTN (probe ILMN_1706426): 7.52E-01
log ratio DTX1 (ILMN_1689002): -5.96E-01
log ratio DUS3L (ILMN_1723235): -1.36E+00
log ratio DYNC1H1 (probe ILMN_1780302): 6.97E-01
log ratio DYNLL2 (probe ILMN_1772796): 8.61E-01
log ratio DYRK1A (ILMN_2374293): -5.97E-01
log ratio DYRK3 (probe ILMN_2400322): 6.97E-01
log ratio DYRK3 (probe ILMN_2400326): 8.26E-01
log ratio EARS2 (ILMN_1758750): -5.91E-01
log ratio EBI2 (ILMN_1798706): -8.22E-01
log ratio EBI2 (ILMN_2168217): -9.10E-01
log ratio ECHS1 (probe ILMN_1718132): 7.78E-01
log ratio EEF1B2 (ILMN_1685678): -8.07E-01
log ratio EEF1E1 (ILMN_1725105): -8.38E-01
log ratio EGR1 (probe ILMN_1762899): 8.42E-01
log ratio ELOF1 (probe ILMN_1723185): 7.14E-01
log ratio EMG1 (ILMN_1797074): -1.12E+00
log ratio ENC1 (probe ILMN_1779147): 7.93E-01
log ratio ENO2 (probe ILMN_1765796): 7.11E-01
log ratio EPB41L5 (ILMN_1770245): 6.78E-01
log ratio EPN1 (ILMN_1772981): 6.50E-01
log ratio ERRFI1 (probe ILMN_1665510): 7.44E-01
